Test results reported in ChEMBL document CHEMBL3232931 (J Med Chem, 2014).
Calls of active or inactive are those of the source. No cut-off for these calls is given here.

Experiments:
[1] = (§1) Inhibition of SARS coronavirus papain-like protease (amino acids 1541 to 1855) expressed in Escherichia coli BL21 (DE3) cells assessed as decrease in AMC release using Z-RLRGG-AMC as substrate by multimode plate reader analysis; design: species or system Severe acute respiratory syndrome-related coronavirus
[2] = target: Replicase polyprotein 1a (Human coronavirus NL63, UniProt P0C6U6); test: (§2) Inhibition of human coronavirus NL63 PLP2 (amino acids 1565 to 1894) expressed in Escherichia coli BL21 (DE3) cells assessed as reduction of AMC release using Z-RLRGG-AMC as substrate by multimode plate reader analysis
Chain of Replicase polyprotein 1a (P0C6U6 899-2462 limits assumed): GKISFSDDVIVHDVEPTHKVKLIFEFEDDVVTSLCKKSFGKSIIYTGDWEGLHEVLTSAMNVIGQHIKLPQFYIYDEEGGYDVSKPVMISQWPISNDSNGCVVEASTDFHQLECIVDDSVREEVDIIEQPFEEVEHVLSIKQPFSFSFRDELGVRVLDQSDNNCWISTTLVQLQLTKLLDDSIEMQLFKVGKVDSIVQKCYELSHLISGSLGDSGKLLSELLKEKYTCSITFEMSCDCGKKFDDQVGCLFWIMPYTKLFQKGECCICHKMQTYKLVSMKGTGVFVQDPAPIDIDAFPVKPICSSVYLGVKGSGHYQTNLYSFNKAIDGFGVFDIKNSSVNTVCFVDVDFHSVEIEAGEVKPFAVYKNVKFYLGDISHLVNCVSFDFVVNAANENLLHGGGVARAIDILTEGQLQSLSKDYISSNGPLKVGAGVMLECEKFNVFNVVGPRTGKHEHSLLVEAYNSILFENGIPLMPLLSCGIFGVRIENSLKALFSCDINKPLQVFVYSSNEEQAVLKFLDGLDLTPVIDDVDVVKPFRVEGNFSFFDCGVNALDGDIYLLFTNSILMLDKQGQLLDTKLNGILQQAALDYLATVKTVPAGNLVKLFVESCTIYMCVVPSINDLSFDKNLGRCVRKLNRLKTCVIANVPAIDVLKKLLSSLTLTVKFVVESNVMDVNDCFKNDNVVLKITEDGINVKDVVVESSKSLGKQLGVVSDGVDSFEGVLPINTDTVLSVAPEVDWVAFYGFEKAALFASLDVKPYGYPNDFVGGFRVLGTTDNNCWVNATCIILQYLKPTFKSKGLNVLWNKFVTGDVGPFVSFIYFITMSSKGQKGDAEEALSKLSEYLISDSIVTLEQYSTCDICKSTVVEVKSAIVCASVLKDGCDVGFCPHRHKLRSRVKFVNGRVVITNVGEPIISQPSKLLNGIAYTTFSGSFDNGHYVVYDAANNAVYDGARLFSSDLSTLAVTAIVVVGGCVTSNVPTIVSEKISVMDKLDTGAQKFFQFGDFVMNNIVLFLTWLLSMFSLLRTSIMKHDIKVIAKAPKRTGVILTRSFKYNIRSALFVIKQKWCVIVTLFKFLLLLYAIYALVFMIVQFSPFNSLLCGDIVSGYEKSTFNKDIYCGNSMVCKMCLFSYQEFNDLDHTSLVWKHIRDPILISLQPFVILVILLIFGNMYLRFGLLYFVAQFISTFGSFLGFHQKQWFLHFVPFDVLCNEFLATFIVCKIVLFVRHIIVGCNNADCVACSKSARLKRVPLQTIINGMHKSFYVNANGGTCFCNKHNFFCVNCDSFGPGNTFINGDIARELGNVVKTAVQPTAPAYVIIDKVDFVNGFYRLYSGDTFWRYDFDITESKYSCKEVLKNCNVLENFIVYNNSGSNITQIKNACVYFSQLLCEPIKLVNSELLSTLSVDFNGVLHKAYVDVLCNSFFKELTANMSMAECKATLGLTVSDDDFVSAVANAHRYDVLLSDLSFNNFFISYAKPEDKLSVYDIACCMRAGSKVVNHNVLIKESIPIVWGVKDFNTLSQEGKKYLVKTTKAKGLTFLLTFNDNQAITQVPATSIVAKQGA

[3] = target: Replicase polyprotein 1a (Human coronavirus NL63) (UniProt P0C6U6); test: as §2
Target sequence in this assay (P0C6U6 899-2462 limits assumed): as above

[4] = target: Replicase polyprotein 1a (Human coronavirus NL63) (UniProt P0C6U6); test: Inhibition of human coronavirus NL63 PLP2 (amino acids 1565 to 1894) expressed in Escherichia coli BL21 (DE3) cells assessed as reduction of AMC release using Z-RLRGG-AMC as substrate at 100 uM by multimode plate reader analysis
[5] = tested on: BL21-DE3; test: as §1; conditions: Severe acute respiratory syndrome-related coronavirus
[6] = Therapeutic index, ratio of CC50 for african green monkey Vero E6 cells to EC50 for SARS coronavirus infected in african green monkey Vero E6 cells; type: cell-based; conditions: read-out: Ratio CC50/EC50
[7] = tested on: BL21-DE3; test: Inhibition of SARS coronavirus papain-like protease (amino acids 1541 to 1855) expressed in Escherichia coli BL21 (DE3) cells assessed as decrease in AMC release using Z-RLRGG-AMC as substrate by serum shift assay based multimode plate reader analysis in presence of 5 to 20% human serum albumin; conditions: Severe acute respiratory syndrome-related coronavirus
[8] = tested on: SARS-CoV; test: Antiviral activity against SARS coronavirus infected in african green monkey Vero E6 cells assessed as cell viability after 48 hrs by Cell Titer-Glo luminescent assay; type: functional, organism-based; conditions: Severe acute respiratory syndrome-related coronavirus
[9] = Cytotoxicity against african green monkey Vero E6 cells assessed as cell viability after 48 hrs by Cell Titer-Glo luminescent assay; type: cell-based; conditions: chlorocebus sabaeus
[10] = tested on: HEK293; test: Cytotoxicity against human HEK293 cells assessed as cell viability after 48 hrs by Cell Titer-Glo luminescent assay; type: cell-based; conditions: hek293, 48 h
[11] = tested on: Liver; test: Half life in mouse liver microsomes at 1 uM; type: ADME
[12] = Metabolic stability in mouse liver microsomes assessed as parent compound remaining at 1 uM after 15 mins; type: ADME; conditions: read-out: Stability

| SMILES | IC50 [1] | further results |
| --- | --- | --- |
| C[C@H](NC(=O)C1CCN([C@H](C)c2cccc3ccccc23)CC1)c1ccccc1 | 12.7 µM | – |
| O=C(NCc1ccc2c(c1)OCO2)C1CCN(C(Cc2ccccc2)c2cccc3ccccc23)CC1 (racemic) | > 100 µM | – |
| CC(=O)Nc1ccc(CNC(=O)C2CCN([C@H](C)c3cccc4ccccc34)CC2)cc1 | 5.7 µM | IC50 [2]: 37 µM; Imax [3]: 42%; inhibition [4]: > 30%; Imax [5]: 94% |
| C[C@H](c1cccc2ccccc12)N1CCC(C(=O)NCc2ccc(F)c(F)c2)CC1 | 29.2 µM | IC50 [2]: 44 µM; Imax [3]: 48%; inhibition [4]: > 30%; Imax [5]: 78% |
| C[C@H](c1cccc2ccccc12)N1CCC(C(=O)NCc2ccncc2)CC1 | 18.3 µM | – |
| O=C(NCc1cccc(F)c1)C1CCN(C2CCCc3ccc4ccccc4c32)CC1 (stereo not drawn) | 5.1 µM | – |
| COC[C@@H](NC(=O)C1CCN([C@H](C)c2cccc3ccccc23)CC1)c1ccccc1 | 1.9 µM | selectivity ratio [6]: > 8.5; inhibition [7]: Active; EC50 [8]: 11.7 µM; CC50 [9]: > 100 µM; CC50 [10]: > 100 µM |
| CC(c1cccc2ncccc12)N1CCC(C(=O)NCc2cccc(F)c2)CC1 (racemic) | 4.5 µM | – |
| COCC(c1cccc2ccccc12)N1CCC(C(=O)NCc2ccc3c(c2)OCO3)CC1 (racemic) | > 100 µM | – |
| C[C@H](c1cccc2ccccc12)N1CCC(C(=O)NCc2ccc(Cl)cc2)CC1 | 0.58 µM | – |
| CCC(c1cccc2ccccc12)N1CCC(C(=O)NCc2ccc3c(c2)OCO3)CC1 (racemic) | 17.2 µM | – |
| CCc1ccc(CNC(=O)C2CCN([C@H](C)c3cccc4ccccc34)CC2)cc1 | 0.47 µM | – |
| C[C@H](c1cccc2ccccc12)N1CCC(C(=O)NCc2ccccc2)CC1 | 2.2 µM | EC50 [8]: > 50 µM |
| C[C@H](c1cccc2ccccc12)N1CCC(C(=O)NCCc2ccc(Cl)cc2)CC1 | 1.6 µM | – |
| CC(c1cccc2cccnc12)N1CCC(C(=O)NCc2cccc(F)c2)CC1 (racemic) | 7 µM | EC50 [8]: > 50 µM |
| C[C@H](c1cccc2ccccc12)N1CCC(C(=O)NCCc2cccc(F)c2)CC1 | 1.9 µM | – |
| CC(=O)NCc1cccc(CNC(=O)C2CCN([C@H](C)c3cccc4ccccc34)CC2)c1 | 20.4 µM | – |
| CNC(=O)c1ccc(CNC(=O)C2CCN([C@H](C)c3cccc4ccccc34)CC2)cc1 | 0.6 µM | – |
| O=C(NCc1ccc2c(c1)OCO2)C1CCN(C(CO)c2cccc3ccccc23)CC1 (racemic) | 32 µM | – |
| COC[C@H](NC(=O)C1CCN([C@H](C)c2cccc3ccccc23)CC1)c1ccccc1 | 18 µM | – |
| C[C@H](c1cccc2ccccc12)N1CCC(C(=O)NCc2cccnc2)CC1 | 26.3 µM | – |
| CC(c1cccc2cnccc12)N1CCC(C(=O)NCc2cccc(F)c2)CC1 (racemic) | 6.8 µM | EC50 [8]: > 50 µM |
| C[C@H](c1cccc2ccccc12)N1CCC(C(=O)NCc2cccc(Cl)c2)CC1 | 27.2 µM | – |
| CC(c1nccc2ccccc12)N1CCC(C(=O)NCc2cccc(F)c2)CC1 (racemic) | 30.8 µM | – |
| COc1cc(CNC(=O)C2CCN([C@H](C)c3cccc4ccccc34)CC2)ccn1 | 0.35 µM | t1/2 [11]: 8 min; IC50 [2]: 59 µM; Imax [3]: 67%; inhibition [4]: > 30%; inhibition [7]: Active; EC50 [8]: 9.5 µM; CC50 [9]: > 100 µM; CC50 [10]: > 100 µM; Imax [5]: 100%; remaining at 0.25 h, 1 µM [12]: 30% |
| CNC(=O)c1cccc(CNC(=O)C2CCN([C@H](C)c3cccc4ccccc34)CC2)c1 | 0.63 µM | – |
| C[C@H](c1cccc2ccccc12)N1CCC(C(=O)N[C@H](C)c2ccccc2)CC1 | 13.5 µM | – |
